Test results from patent US7820624B2, “Peptide ligands” (ICH Productions Limited, priority 2003, dated 2010).
“Also recorded” adds a separate entry of the source.

Key:
[1] = system: human monocyte-derived immature dendritic cells; assay: Titration of phage clone binding to human dendritic cells; conditions: for Phage harvested by cell lysis (pfu), human donor S / Phage harvested by cell lysis (pfu), human donor one / Phage harvested by cell lysis (pfu), human donor two: 2×10^11 phage on 5×10^4 cells, 1 hour on ice; for Extent of phage clone binding in titrations: all titrations, including mouse dendritic cells, versus phage with no insert
Description: Phage were recovered and titred from each round of selection as follows. 2×10^11 Blocked phage were added to 5×10^4 blocked monocyte-derived immature dendritic cells for 1 hour on ice before washing cells three times with 0.05% Tween20-PBS, eluting phage with TBS pH5.5, and lysing cells to harvest the phage remaining bound. The numbers of phage harvested by cell lysis were calculated as plaque forming units (pfu). […] Sequencing of the bound phage shown in FIG. 1 identified the peptides as APSNSTA [SEQ. ID. NO.:15], QLLTGAS [SEQ. ID. NO.:30], TARDYRL [SEQ. ID. NO.:31], FQSQYQK [SEQ. ID. NO.:26], PLMPSLS [SEQ. ID. NO.:24], FPRAPHH [SEQ. ID. NO.:32], MASISMK [SEQ. ID. NO.:27], DWWHTSA [SEQ. ID. NO.:28], SHVKLNS [SEQ. ID. NO.:29], and SPALKTV [SEQ. ID. NO.:16].
(§1) The dendritic cells were spun down at 2000 rpm, for 5 min at 4° C., and resuspended in the phage solution, allowing the phage to bind for 1 hour on ice with occasional mixing. The cells were then washed in PBS-Tween 20 (0.05%) three times before eluting phage with 166 μl TBS pH5.5. for 10 min on ice. The eluate was neutralised with […] Tris-HCl pH 8, the cells were spun down, and the supernatant removed to be stored as eluate. The cell pellet was resuspended in 200 μl of cell lysis buffer (30 mM Tris-HCl, 1 mM EDTA pH 8.0) for 1 hour on ice, with shaking. The cell debris was removed by spinning at 5000 rpm for 5 min and the supernatant recovered. The phage in the eluate and the cell lysate were titred by measuring plaque forming units (pfu) in E. coli ER2738 as described in the NEB C7C technical bulletin.
(§2) The titration of phage clone binding was carried out using human and mouse dendritic cells, with binding to plastic as a control. The human cells were obtained from donors as stated below.

mouse dendritic cells = assay: Titration of phage clone binding to mouse dendritic cells; conditions: 2×10^11 phage
Description: as §1, §2

[2] = Titration of phage clone binding to blocked plastic (control)
Description: as §1, §2

[3] = system: human monocyte-derived immature dendritic cells; assay: Whole cell flow cytometry (FACS) of phage clone binding; conditions: day 4 cells, several donors; versus phage clone with no insert
Description: 5×10^4 Dendritic cells and 2×10^11 of an individual purified phage clone were each blocked at 4° C. for 30 mins in 1 ml MBSA (2% Marvel, 5% BSA in PBS), with mixing on a turntable. The dendritic cells were spun down at 2000 rpm, a gentle centrifugation to pellet cells without lysing them, for 5 min at 4° C., and the pellet resuspended in the blocked phage solution. The mixture was held on ice for 30 min to allow the phage to bind, before spinning down the cells, removing the supernatant and washing the cells with 1 ml 1% BSA, 0.05% Tween20-PBS. The cells were spun again, the supernatant removed, and the cells fixed in 1 ml 1% paraformaldehyde for 30 min on ice. […] The cells were incubated with the antibody on ice for 30 min before spinning down, washing twice in 0.05% Tween20, 1% BSA PBS, resuspending in […] and measuring the percentage cells positive for FITC by FACS analysis.
Alternatively, 5×10^4 dendritic cells were mixed with 2×10^11 of individual phage clones as described for panning of the phage library. The mixture of phage and DC suspensions was kept on ice for 30 min before cells were centrifuged to remove the supernatant and washed with 1 ml 1% BSA, 0.05% Tween 20-PBS. The cells were again pelleted by centrifugation, then fixed for flow cytometry analysis by resuspending in 1 ml of 1% paraformaldehyde for 30 min on ice. […] The cells were incubated with the antibody on ice for 30 min then pelleted by centrifugation, washed twice in 0.05% Tween 20, 1% BSA PBS and resuspended in 200 μl PBS. The percentage of FITC-positive cells was determined by flow cytometry using a Epics XL flow cytometer (Beckman Coulter, High Wycombe, UK.).

[4] = system: human monocyte-derived immature dendritic cells; assay: LID (lipid-peptide-DNA) transfection of immature dendritic cells, EGFP by FACS and 7AAD cell death; format: cell-based; set-up: Transfection efficiency, % EGFP positive cells: concentration or dose not given beside the values; conditions: for Percentage of dendritic cells transfected / Transfection efficiency, % positive cells: day 4 cells; for Percentage of dendritic cells transfected: LID with lipofectin (FIG. 4b)
Description: (§3) Lipopolyplex (LID) transfection complexes comprising lipid (L), peptide (in the form of a peptide derivative as described above) (I) and DNA (D) were prepared. The lipid component was Lipofectin or Lipofectamine 2000 (Invitrogen Ltd, Paisley, UK), the peptide component was a synthesized peptide A to F, 6 or 6J derivative, as described in Table 7 above, and the DNA was the plasmid pEGFP-N1 (Clontech, BD Biosciences, Palo Alto, Calif.)
In the transfection complex, peptide component to DNA charge ratios (+/−) were used at 1.5:1, 3:1 and 7:1. The lipid
(§4) component (Lipofectin or Lipofectamine 2000) was maintained at a constant proportion, by weight, relative to DNA of 0.75:1. Prior to making transfection complexes, in method A the lipid component was diluted to a concentration of 15 μg per ml, the peptide was prepared at 0.1 mg/ml and the DNA (plasmid pEGFP-N1, BD Biosciences, Cowley, UK, prepared using EndoFree plasmid kit, Qiagen Ltd, Crawley, UK) was at 10 μg per ml. All dilutions were performed with OptiMEM reduced serum tissue culture medium (Life Technologies Ltd, Paisley, UK). In method B prior to making transfection complexes the lipid component was diluted to a concentration of 30 μg per ml, the peptide was prepared at 0.1 mg/ml and the DNA (plasmid pEGFP-N1, BD Biosciences, Cowley, UK, prepared using EndoFree plasmid kit, Qiagen Ltd, Crawley, UK) was at […]. All dilutions were performed in serum-free RPMI.
(§5) Transfection complexes were made by mixing the components in the order 1) lipid (50 μl) then 2) peptide (70 μl) and finally 3) DNA (50 μl), then diluting with OptiMEM or serum free RPMI, as appropriate, to a concentration relative to the DNA component of 2 μg DNA per […] (OptiMEM) or 500 μl (RPMI).
Immature day 6 dendritic cells, obtained as described in Example 1(v) above, were plated into a 48 well plate at 5×10^4 cells per well in complete media and allowed to settle for 3 hours at 37° C. 300 μl or 500 μl (as appropriate) of the transfection complex obtained as described above was added to each well. The transfection complex was applied to cells within 5 minutes of preparation. Transfection incubations were performed at 37° C. for 4 hours, after which the medium was replaced with complete medium with cytokines for 24 hours. Cells were harvested by scraping, spun down and resuspended in 300 μl PBS for FACS analysis to determine the percentage of cells positive for the reporter gene EGFP (Enhanced Green Fluorescent Protein). Each transfection was performed in triplicate wells.
(§6) For transfection of monocytes, peripheral blood monocytes were prepared using Lymphoprep centrifugation and CD14 bead selection as described in the method for preparation of monocyte derived dendritic cells in Example 1(v) above. These cells were then transfected as described as described for dendritic cells except that transfection of the monocytes (and also of day 3 or day 4 immature dendritic cells) was carried out in solution.

[5] = system: human peripheral blood monocytes; assay: LID transfection of monocytes, EGFP by FACS and cell death; format: cell-based
Description: as §3, §4, §5, §6

[6] = lipofectin, lipid:DNA 0.75:1, peptide:DNA 7:1 (FIG. 5a)

Row | Substance | Phage harvested by cell lysis (pfu), human donor S [1] | Phage harvested by cell lysis (pfu), human donor one [1] | Phage harvested by cell lysis (pfu), human donor two [1] | Phage titre (pfu), mouse DCs (mouse dendritic cells) | Phage titre (pfu), plastic [2] | Percentage of cells positive for bound phage (FITC) by FACS [3] | Percentage of dendritic cells transfected [4] | Cell death ([5]; FIG. 7b, peptide F value with Lipofectin) | Extent of phage clone binding in titrations [1] | Transfection efficiency, % positive cells [4, 6] | Percentages of cells transfected (ranking) ([5]; FIG. 7a) | Transfection efficiency, % EGFP positive cells ([4]; day 3 dendritic cells (FIG. 6a)) | Transfection efficiency, % positive cells ([4]; Lipofectamine 2000)
1 | DWWHTSA (Synthetic peptide binding to dendritic cells) | 8020 pfu ×10^3 | 2980 pfu ×10^3 | 1380 pfu ×10^3 | 3240 pfu ×10^3 | 1180 pfu ×10^3 | binding to a higher percentage of cells than a phage clone bearing no insert; also recorded: bind to dendritic cells in highest amounts; also recorded: binding to dendritic cells in highest amounts | less than 1% | 25% | – | – | – | – | –
2 | FPRAPHH (Synthetic peptide binding to dendritic cells) | 19400 pfu ×10^3 | 15920 pfu ×10^3 | 3200 pfu ×10^3 | 13980 pfu ×10^3 | 1860 pfu ×10^3 | a higher percentage of cells positive for bound phage than the controls with no insert | – | – | bound in highest numbers in all titrations | 11% | highest percentages of cells transfected | – | –
3 | FQSQYQK (Synthetic peptide binding to dendritic cells) | 3060 pfu ×10^3 | 1000 pfu ×10^3 | 360 pfu ×10^3 | 3260 pfu ×10^3 | 1680 pfu ×10^3 | binding to a higher percentage of cells than a phage clone bearing no insert | – | – | – | – | – | – | –
4 | MASISMK (Synthetic peptide binding to dendritic cells) | 9440 pfu ×10^3 | 15220 pfu ×10^3 | 7780 pfu ×10^3 | 6380 pfu ×10^3 | 2380 pfu ×10^3 | a higher percentage of cells positive for bound phage than the controls with no insert | approximately half that value | – | bound in highest numbers in all titrations | about 7% | – | – | –
5 | PMLPSLS (Synthetic peptide binding to dendritic cells) | 560 pfu ×10^3 | 40 pfu ×10^3 | 40 pfu ×10^3 | 1520 pfu ×10^3 | 80 pfu ×10^3 | a higher percentage of cells positive for bound phage than the controls with no insert | – | – | – | – | – | – | –
6 | QLLTGAS (Synthetic peptide binding to dendritic cells) | 220 pfu ×10^3 | 380 pfu ×10^3 | 960 pfu ×10^3 | 20 pfu ×10^3 | 220 pfu ×10^3 | a higher percentage of cells positive for bound phage than the controls with no insert; also recorded: binds to marginally more cells than the others | – | – | – | – | – | – | –
7 | RRETAWA [peptide 6, reference compound] | – | – | – | – | – | – | – | – | – | 2% | – | 14% | 3%
8 | SPALKTV (Synthetic peptide binding to dendritic cells) | 6960 pfu ×10^3 | 120 pfu ×10^3 | – | 600 pfu ×10^3 | 220 pfu ×10^3 | all clones except for one | – | – | – | – | – | – | –
9 | SQKNPQM (Synthetic peptide binding to dendritic cells) | – | – | – | – | – | binding to a higher percentage of cells than a phage clone bearing no insert | – | – | – | – | – | – | –
10 | STPPNTT (Synthetic peptide binding to dendritic cells) | – | – | – | – | – | a higher percentage of cells positive for bound phage than the controls with no insert | – | – | – | – | – | – | –
11 | TARDYRL (Synthetic peptide binding to dendritic cells) | 940 pfu ×10^3 | – | 180 pfu ×10^3 | – | – | a higher percentage of cells positive for bound phage than the controls with no insert | – | – | – | – | – | – | –
